Common to all, as to format: cell-based, rat
The subject of assay [1] is cerebellar granule neurons. Briefly: Effect of inhibition of signal transduction pathways on neuroprotection by 1,4-benzoxazines in LK-treated cerebellar granule neurons. The following applies: LK medium, 24 h; for effect of pharmacological inhibition of the MEK-ERK and PI-3K-Akt pathways on neuroprotective action: PD98059 40 μM, U0126 10 μM, Wortmannin 100 nm, Akt inhibitor-X 5 μM, DAPI. How it is done: Cultures of cerebellar granule neurons were switched to LK medium, LK medium containing of HSB-13, or LK medium containing HSB-13 and either PD98059 (40 μM), U0126 (10 μM), Wortmannin ([…]), Akt inhibitor-X (5 μM), KN-62 (10 μM), H89 (10 μM) and TSA (1 μM). Viability was quantified 24 h later by DAPI staining. The results were normalized to viability in control cultures which were switched to HK medium;
The Raf-MEK-ERK and P1-3 kinase-Akt signaling are two well-established and powerful anti-apoptotic pathways in mammalian cells that mediate the protective effects of a number of neurotrophic polypeptides, pharmacological agents, and neuroprotective compounds (D'Mello and Chin, 2005; Hetman et al., 2006). To determine whether either of these pathways was involved in the neuroprotective effect of 1,4-benzoxazines the inventors studied whether the pharmacological inhibition of these pathways affected their neuroprotective efficacy. […] Similarly, none of the compounds tested (the PI-3 kinase inhibitor, wortmannin, the Akt inhibitor X, or a commercially available inhibitor of Akt) reduced the ability of HSB-13 to protect neurons against LK-induced apoptosis (FIG. 3). […] As observed for HSB-13, pharmacological inhibition of the MEK-ERK and PI-3K-Akt pathways had no effect on the neuroprotective actions of ASK-2a or HSB-22.
Treatment of cerebellar granule neurons with HK activates calcium-calmodulin kinase (CaMK) and inhibition of CaMK with pharmacological inhibitors such as KN-62 inhibits HK-mediated survival (See et al., 2001; Linseman et al., 2003; Morrison et al., 2006). […] The present inventors recognized that several investigators have shown that cyclic AMP analogs and pharmacological activators of protein kinase A promote survival of cerebellar granule neurons as well as other neuronal types in the absence of other survival-promoting stimuli (Rydel and Greene, 1988; D'Mello et al., 1993; Hanson et al., 1998). PKA-mediated neuronal survival is blocked by treatment with H89, a potent and selective PICA inhibitor (Li et al., 2000; Bhave and Hoffman, 2004). […] The inventors have previously reported that histone deacetylase inhibitors such as trichostatin A block the ability of HK to maintain the survival of cerebellar granule neurons (Salminen et al., 1998; Boutillier et al., 2002; Morrison et al., 2006).

The next assay concerns phospho-MEK. Briefly: Western blot of signaling proteins in LK-treated cerebellar granule neurons: phospho-MEK. The following applies: LK medium with compound, 3 h. How it is done:
(§1) Cultures of cerebellar granule neurons were switched to HK medium, LK medium, or LK medium containing of HSB-13, HSB-22, or ASK-2a for 3 h. Total cell lysates were prepared and analyzed by Western blotting using antibodies against phospho-Akt (Ser473), phospho-MEK, phospho-ERK, and phospho-GSK3β.
(§2) The culture medium was removed and the cells were washed twice with ice-cold phosphate-buffered saline (PBS) and lysed in lysis buffer [1% Triton, 20 mM Tris-HCl (pH 7.5), 150 mM NaCl, 1 mM Na2EDTA, 1 mM EGTA, 2.5 mM sodium pyrophosphate, 1 mM beta-glycerophosphate, 1 mM Na3VO4, 1 μg/mL leupeptin and 1 protease inhibitor mixture]. Protein concentrations were measured and normalized using Bradford protein assay reagent (Bio-Rad, Hercules, Calif., USA). Following normalization, 40 μg of protein was subjected to Western blotting. Immunoreactivity was examined by enhanced chemiluminescence (Amersham Bioscience, Piscataway, N.J., USA).
(§3) Activation of MEK, ERK and Akt requires their phosphorylation, which can be detected using phospho-specific antibodies. As previously reported by the inventors and others (Chin et al., 2004; Johnson et al., 2005; Majdzadeh et al., 2008), MEK and ERK phosphorylation decreases following LK treatment of cerebellar granule neurons. This decrease is not prevented by HSB-13, HSB-22, or ASK-2a (FIG. 4). […] This is also not affected by treatment with ASK-2a or HSB-22 (FIG. 4).

In the next assay the test system is phospho-ERK. Nature of the assay: Western blot of signaling proteins in LK-treated cerebellar granule neurons: phospho-ERK. The settings on record: LK medium with compound, 3 h. As for the experimental part: as §1, §2, §3
In a further assay the test system is phospho-GSK3β. Nature of the assay: Western blot of signaling proteins in LK-treated cerebellar granule neurons: phospho-GSK3β. The settings on record: LK medium with compound, 3 h. How it is done:
as §1, §2
Since the Raf-MEK-ERK and the PI-3 Kinase-Akt pathways are not required for neuroprotection by HSB-13, the involvement of other signaling molecules that are known to promote neuronal survival was determined. GSK3β is a proapoptotic molecule that is activated during apoptosis in many neuronal and non-neuronal systems. Under survival promoting conditions GSK3β is kept inactivated by phosphorylation at an inhibitory site, a modification that can be induced by Akt as well as by other kinases.

A further assay deals with c-jun. Nature of the assay: Western blot of c-jun expression in LK-treated cerebellar granule neurons. The following applies: 25 μM, 3 h. How it is done: (§4) Cerebellar neuron cultures were treated for 3 h with HK, LK, or LK medium containing 25 μM HSB-13, 25 μM ASK-2a, or 25 μM HSB-22. Whole cell lysates were then prepared and subjected to Western blot analysis using antibodies against c-jun and ATF-3.
as §2
(§5) C-jun expression is induced in a variety of tissue culture and in vivo paradigms of neuronal apoptosis (Schenkel et al., 2004). […] Treatment with HSB-13 inhibited c-jun expression even lower that that seen in HK-treated cultures. […] The suppression of ATF-3 expression using siRNA inhibits LK-mediated death of cerebellar granule neurons has been previously been described by the present inventors (Chen et al., 2008a). […] As observed with c-jun, the suppression was most robust with HSB-13. As a result these compositions can inhibit the activity of c-jun and ATF-3, which in turn play a role in treating cancer and oncoproteins like c-jun.

The next assay concerns ATF-3. Briefly: Western blot of ATF-3 expression in LK-treated cerebellar granule neurons. The settings on record: 25 μM, 3 h. How it is done: as §4, §2, §5

As for `O=C1Nc2ccccc2OC1=Cc1cc(Br)c(O)c(Br)c1` [ASK-2a], the “effect of pharmacological inhibition of the MEK-ERK and PI-3K-Akt pathways on neuroprotective action” value in assay [1] is reported as “no effect”. Moreover, in the assay with phospho-MEK, the “LK-induced decrease of MEK phosphorylation” value is “not prevented”. For the same molecule, the “LK-induced decrease of ERK phosphorylation” value in the assay on phospho-ERK is “not prevented”. For the same molecule, the “dephosphorylation of GSK3β in LK” value in the assay with phospho-GSK3β was “inhibit dephosphorylation”. For the same molecule, the “induction of c-jun expression by LK” value with c-jun is “inhibited”. Also, in the assay on ATF-3, the “LK-mediated increase in ATF-3” value is “inhibited”.
`Nc1ccc2c(c1)NC(=O)/C(=C/c1cc(Br)c(O)c(Br)c1)O2` [HSB-13, (Z)-6-amino-2-(3,′5′-dibromo-4′-hydrozybenzylidene)-2H-benzo[b][1,4]oxazin-3(4H)-one]: the “neuroprotection in the presence of H89” value in assay [1] (H89 10 μM (PKA inhibitor)) is “no effect”. Further, in assay [1] (KN-62 10 μM (CaMK inhibitor)), the “neuroprotection in the presence of KN-62” value was “not, however, reduced”. For the same molecule, the “effect of pharmacological inhibition of the MEK-ERK and PI-3K-Akt pathways on neuroprotective action” value in assay [1] is on record as “no effect”. Besides, the “neuroprotection in the presence of TSA” value in assay [1] (TSA 1 μM (histone deacetylase inhibitor)) is “did not inhibit”. The “LK-induced decrease of MEK phosphorylation” value in the assay with phospho-MEK is on record as “not prevented”. For the same molecule, the “LK-induced decrease of ERK phosphorylation” value with phospho-ERK was “not prevented”. In addition, the “dephosphorylation of GSK3β in LK” value with phospho-GSK3β is on record as “not inhibited”. Further, the “induction of c-jun expression by LK” value with c-jun is “inhibited”. For the same molecule, the “LK-mediated increase in ATF-3” value with ATF-3 is on record as “inhibited”.
Regarding `O=C1Nc2cc(Cl)ccc2O/C1=C\c1cc(Br)c(O)c(Br)c1` [HSB-22], the “effect of pharmacological inhibition of the MEK-ERK and PI-3K-Akt pathways on neuroprotective action” value in assay [1] was “no effect”. Moreover, the “LK-induced decrease of MEK phosphorylation” value in the assay on phospho-MEK is recorded as “not prevented”. Moreover, the “LK-induced decrease of ERK phosphorylation” value with phospho-ERK is “not prevented”. Moreover, the “dephosphorylation of GSK3β in LK” value in the assay with phospho-GSK3β is given as “inhibit dephosphorylation”. Besides, in the assay with c-jun, the “induction of c-jun expression by LK” value was “inhibited”. Moreover, the “LK-mediated increase in ATF-3” value in the assay on ATF-3 is listed as “inhibited”.

Values taken from patent publication US8680094B2, “1, 4-benzoxazine compounds and derivatives thereof as therapeutic drugs for the treatment of neurodegenerative conditions” (Board of Regents, The University of Texas System, priority 2008, dated 2014).
